Results on 21 compounds are retold here after PubChem BioAssay (NCI).

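Compound exposure: 48 hours, 5 concentrations, 96-well plates. GI50 = concentration required for 50% inhibition of growth. TGI denotes the concentration required for complete inhibition of growth.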 A value given as a limit tells only on which side of the number the result lay.

Holding throughout (experiment): NCI tumour cell line growth inhibition, 48 h
Test [1] deals with OVCAR-4 ovarian.
Test [2] has as its system SF-268 CNS.
For test [3], the system named is K-562 leukemia.
Test [4] concerns RXF 393 renal.
The test system of test [5] is SR leukemia.
For test [6], the system named is LOX IMVI melanoma.
The test system of test [7] is EKVX NSCLC.
Test [8] has as its system M14 melanoma.
In test [9] the test system is HCC-2998 colon.
Test [10] deals with SK-OV-3 ovarian.

Turning to `c1csc(-c2nnc(C34CC5CC(CC(C5)C3)C4)o2)c1`, the TGI in [1] is over 100 µM; in test [2], over 100 µM; in test [3] it was over 100 µM; in test [4], 54.7 µM; in [5], 66.6 µM; in [6] it was 47.1 µM. Also, the TGI in test [7], in [8], in test [9] and in [10] was over 100 µM each time.

For the compound `C=C(COC(=O)C(C)C)[C@H]1Oc2ccc(C(C)=O)cc2[C@@H]1OC(=O)C(C)C`, the TGI in [1], in [2], in test [3], in [4], in test [5] and in test [6] was over 100 µM throughout. The TGI in test [7], in [8], in test [9] and in test [10] was over 100 µM throughout.

Take `c1ccc(-c2nc3ccccc3n3nnnc23)cc1`: the TGI in test [1], in test [2], in test [3], in test [4], in test [5] and in [6] was over 100 µM in each case. The TGI in test [7], in test [8], in test [9] and in test [10] was over 100 µM in each case.

On to `Cc1nc(N)nc(N)c1N1CCN(Cc2ccccc2)CC1`, for which the TGI in [1], in [2], in test [3], in [4], in [5] and in test [6] was over 100 µM in each case. In addition, the TGI in test [7], in [8], in test [9] and in [10] was over 100 µM in each case.

`C=C1[C@H](OCC(C)C)[C@@H](OC(=O)C(C)CC)[C@@H](O)C(C)(C)/C=C/[C@H](C)C(=O)[C@@]2(O)C[C@H](C)[C@H](O)[C@@H]2[C@H]1OC(=O)C(C)CC` (stereo not given in full): the TGI in test [1] was over 20 µM; in test [2], over 20 µM; in [3] it was over 13.5 µM; in test [4], over 20 µM; in test [5], over 10.5 µM; in test [6], over 13.3 µM. The TGI was over 20 µM in [7], over 11.1 µM in test [8], over 9.84 µM in [9] and over 20 µM in test [10].

For the compound `O=C(c1ccccc1)n1[nH]c(=O)n(-c2ccc(Cl)cc2)c1=O`, the TGI in test [1], in [2], in test [3], in [4], in test [5] and in test [6] was over 100 µM in each case. The TGI in test [7], in test [8], in test [9] and in test [10] was over 100 µM in each case.

`COc1cccc(/C=N/n2c(Cc3ccc(Cl)cc3)n[nH]c2=O)c1`: the TGI in test [1] was over 100 µM; in [2] it was 34.9 µM; in test [3], over 100 µM; in [4], 11.2 µM; in [5], over 100 µM; in test [6] it was over 100 µM. Further, the TGI in [7] is over 84 µM; in test [8], over 100 µM; in [9] it was over 100 µM; in test [10] it was 81.9 µM.

Take `O=C(O)C(CO)NC(=O)C1C(C(=O)O)C(c2ccccc2[N+](=O)[O-])C=C(c2ccco2)N1c1ccncc1` (stereo not given): the TGI was 25.3 µM in test [1]; 30.5 µM in [2]; 5.74 µM in [3]; 3.12 µM in [4]; over 100 µM in [5]; 3.42 µM in test [6]. In addition, the TGI in [7] was found to be 32.7 µM; in test [8] it was 13.9 µM; in [9], 9.13 µM; in test [10], 29.4 µM.

In the case of `Cc1csc2n(C)c(=O)c3ccccc3[n+]12`, the TGI in [1], in test [2], in test [3], in [4], in [5] and in [6] was over 100 µM each time. The TGI in [7], in [8], in [9] and in test [10] was over 100 µM throughout.

With `O=c1c(S(=O)(=O)Oc2ccccc2)coc2cc(F)ccc12`, the TGI in test [1], in [2], in [3], in [4], in test [5] and in test [6] was over 100 µM in each case. Moreover, the TGI in test [7], in [8], in [9] and in test [10] was over 100 µM throughout.

On to `OCCNc1nc2c(N3CCCC3)nc(N3CCNCC3)nc2nc1NCc1ccccc1`, for which the TGI came out at 32.2 µM in test [1]; 34.1 µM in [2]; 30.1 µM in [3]; 24.7 µM in test [4]; 32.7 µM in test [5]; 29.1 µM in [6]. For the same compound, the TGI is 26.9 µM in test [7], 29.4 µM in test [8], 29.1 µM in test [9] and 31.1 µM in test [10].

For the compound `COc1cc([C@@H]2c3cc4c(cc3[C@@H](Nc3ccc(NC(=O)c5cc(NC(=O)c6cc([N+](=O)[O-])cn6C)cn5C)cc3)[C@H]3COC(=O)[C@H]23)OCO4)cc(OC)c1O`, the TGI in test [1] was over 100 µM; in test [2] it was over 79.7 µM; in [3], 14.4 µM; in [4], over 62.3 µM; in [5], over 100 µM; in test [6], over 44.1 µM. In addition, the TGI in [7] was over 64.2 µM; in test [8] it was 47.7 µM; in test [9] it was 26.4 µM; in test [10], over 55.7 µM.

As to `CCOC(=O)O/N=C1/C(c2c(O)[nH]c3ccccc23)=Nc2ccccc21`, the TGI in test [1] is 45.2 µM; in test [2], 68.2 µM; in test [3], over 100 µM; in test [4], 6.16 µM; in [5], over 100 µM; in test [6] it was 26.6 µM. In addition, the TGI was found to be 13.5 µM in test [7], 24.2 µM in test [8], 6.46 µM in test [9] and 7.07 µM in test [10].

As for `O=[N+]([O-])c1cc(Cl)ccc1S(=O)(=O)c1cc(Cl)cc2c1NCCC2`, the TGI in test [1], in [2], in test [3], in test [4], in test [5] and in test [6] was over 100 µM in each case. The TGI in [7], in test [8], in test [9] and in test [10] was over 100 µM each time.

`COC1CCC(n2c([C@@H]3CCCC(=O)N3c3ccc(F)c(F)c3)nc3cc(-c4c(C)noc4C)ccc32)CC1` (stereo not given in full): the GI50 was 0.782 µM in [1]; 14.6 µM in [2]; 2.8 µM in test [3]; 4.82 µM in [4]; 0.755 µM in test [5]; 4.13 µM in [6]. The GI50 in test [7] was 3.97 µM; in test [8], 1.87 µM; in test [9], 4.19 µM; in test [10], 4.09 µM. The TGI is 26.5 µM in test [1]; 56.4 µM in [2]; over 100 µM in test [3]; 17.7 µM in test [4]; over 100 µM in test [5]; 16.9 µM in test [6]. The TGI in test [7] was over 100 µM; in test [8] it was 19.9 µM; in test [9], 19.6 µM; in [10], 18.8 µM.

Consider `O=C1C=C(NCCc2cc(Br)c(O)c(Br)c2)C(=O)c2[nH]cnc21`, for which the TGI in test [1] is 94.9 µM; in test [2], over 100 µM; in [3], over 100 µM; in test [4], 98 µM; in [5] it was over 100 µM; in test [6] it was over 100 µM. For the same compound, the TGI in test [7] is over 100 µM; in test [8], 57.7 µM; in test [9] it was over 100 µM; in [10] it was over 100 µM.

Consider `Cc1ccnc2sc3ccccc3c(=O)c12`, for which the TGI in test [1], in test [2], in test [3], in test [4], in [5] and in test [6] was over 100 µM each time. The TGI is 94.4 µM in test [7], over 100 µM in test [8], over 100 µM in test [9] and over 100 µM in [10].

In the case of `CC(CN(C)C)C(=O)/C=C/c1ccc(Cl)c(Cl)c1` (stereo not given), the TGI is 19 µM in test [1]; 4.14 µM in test [2]; over 100 µM in test [3]; 40.8 µM in test [4]; 6.25 µM in test [5]; 2.99 µM in test [6]. Further, the TGI was determined as 3.11 µM in [7], 5.13 µM in test [8], 3.48 µM in test [9] and 17.5 µM in test [10].

On to `O=C1C(CN2CCCC2)CCCC1CN1CCCC1` (stereo not given), for which the TGI in test [1] worked out at 20.3 µM; in test [2], 52.3 µM; in test [3] it was 2.27 µM; in [4] it was 8.08 µM; in test [5], 5.66 µM; in [6], 6.26 µM. In addition, the TGI is 13.7 µM in test [7], 3.3 µM in test [8], 34.3 µM in [9] and 31.9 µM in test [10].

`O=Cc1cc(O)c(O)c(/C=N/n2c3ccccc3c3ccccc32)c1`: the TGI in test [1] is 13.5 µM; in test [2], 20 µM; in [3], 26.7 µM; in [4], 23.5 µM; in test [5], 21.4 µM; in [6], over 100 µM. Moreover, the TGI is 43.5 µM in test [7], 23.6 µM in test [8], 30.9 µM in test [9] and 21.1 µM in test [10].

As to `CC(C)C(/C=C/c1ccccc1)=N\NC(=S)NN`, the TGI in test [1], in [2], in [3], in test [4], in test [5] and in [6] was over 100 µM throughout. The TGI in [7], in test [8], in test [9] and in test [10] was over 100 µM in each case.
